“Also recorded” adds a separate entry of the source.
System: Sap9
Test: purified recombinant Sap9
Conditions: C. albicans, 37 °C, up to 2 h

In the case of DSHAKRHHGYKRKFHEKHHSHRGY, the cleaved bond was “K17-H18; also recorded: R12-K13; also recorded: K13-F14; also recorded: H18-H19”.
In the case of DSHAKRHHGYKRRFHEKHHSHRGY, the fragment found was “amino acids 1–17; also recorded: amino acids 18–24”.
With DSHAKRHHGYLRKFHEKHHSHRGY the fragment found was “amino acids 1–17; also recorded: amino acids 18–24”.
With DSHAKRHHGYRRKFHEKHHSHRGY the fragment found was “amino acids 1–17; also recorded: amino acids 18–24”.
With DSHALRHHGYKRKFHEKHHSHRGY the fragment found was “amino acids 1–17; also recorded: amino acids 18–24”.
DSHARRHHGYKRKFHEKHHSHRGY was tested, and the fragment found was “amino acids 1–17; also recorded: amino acids 18–24”.

— publication PMC7106779 (2017)
